# According to ChEMBL document CHEMBL1255559, “Novel macrocyclic HCV NS3 protease inhibitors derived from α-amino cyclic boronates” (Bioorg Med Chem Lett, 2010):
# How the values were obtained:
# [1] = test system: Hepatitis C virus; test: Antiviral activity against HCV 1b infected in human hepatoma cells by replicon assay; format: functional, organism-based, Hepacivirus hominis; conditions: genotype 1b
# [2] = Inhibition of HCV 1a NS3/4A protease by FRET assay; design: species or system Hepatitis C virus subtype 1a
# [3] = test system: Hepatitis C virus; test: Antiviral activity against HCV 1a infected in human hepatoma cells by replicon assay; format: functional, organism-based, Hepacivirus hominis; conditions: subtype 1a
EC50 [1] [µM],IC50 [2] [µM],EC50 [3] [µM],SMILES
2.8,0.062,1.3,CC1(C)CCCCc2cccc3c2CN(C3)C(=O)O[C@@H]2C[C@@H](C(=O)N[C@H]3CCCOB3O)N(C2)C(=O)[C@H](C(C)(C)C)NC(=O)OC1
1.7,0.13,1.9,C[C@H]1COB[C@H]1NC(=O)[C@@H]1C[C@@H]2CN1C(=O)[C@H](C(C)(C)C)NC(=O)OCC(C)(C)CCCCc1cccc3c1CN(C3)C(=O)O2
> 25,1.3,12,CC1(C)CCCCc2cccc3c2CN(C3)C(=O)O[C@@H]2C[C@@H](C(=O)N[C@@H]3CCCOB3O)N(C2)C(=O)[C@H](C(C)(C)C)NC(=O)OC1
> 10,,8.7,CC(C)(C)[C@H](NC(=O)OC1CCCC1)C(=O)N1C[C@H](OC(=O)N2Cc3cccc(F)c3C2)C[C@H]1C(=O)N[C@@H]1BOCC1
4.2,0.11,0.98,CC1(C)CCCCc2cccc3c2CN(C3)C(=O)O[C@@H]2C[C@@H](C(=O)N[C@@H]3BOC[C@@H]3C3CC3)N(C2)C(=O)[C@H](C(C)(C)C)NC(=O)OC1
0.2,0.047,0.38,CC1(C)CCCCc2cccc3c2CN(C3)C(=O)O[C@@H]2C[C@@H](C(=O)N[C@H]3CCCCOB3O)N(C2)C(=O)[C@H](C(C)(C)C)NC(=O)OC1
0.354,0.043,0.78,CC1(C)CCCCc2cccc3c2CN(C3)C(=O)O[C@@H]2C[C@@H](C(=O)N[C@@H]3BOCC3)N(C2)C(=O)[C@H](C(C)(C)C)NC(=O)OC1
30,25,33,C[C@@H]1COB[C@@H]1NC(=O)[C@@H]1C[C@@H]2CN1C(=O)[C@H](C(C)(C)C)NC(=O)OCC(C)(C)CCCCc1cccc3c1CN(C3)C(=O)O2
3.9,0.3,3.7,CC1(C)CCCCc2cccc3c2CN(C3)C(=O)O[C@@H]2C[C@@H](C(=O)N[C@@H]3CCCCOB3O)N(C2)C(=O)[C@H](C(C)(C)C)NC(=O)OC1
≤ 0.001,,≤ 0.001,CC[C@@H]1C[C@]1(NC(=O)[C@@H]1C[C@@H]2CN1C(=O)[C@H](C(C)(C)C)NC(=O)OCC(C)(C)CCCCc1cccc3c1CN(C3)C(=O)O2)C(=O)NS(=O)(=O)C1CC1
> 50,1.4,11,CC1(C)CCCCc2cccc3c2CN(C3)C(=O)O[C@@H]2C[C@@H](C(=O)N[C@H]3BOCC3)N(C2)C(=O)[C@H](C(C)(C)C)NC(=O)OC1
